Test results as given in patent publication US20220089575A1, “FARNESOID X RECEPTOR AGONISTS AND USES THEREOF” (Metacrine, Inc., priority 2017, published 2022).

Biological target: T1, hFXR (Homo sapiens, UniProt Q96RI1)
T1 construct: expressed in transfected cells; host or cells: CV-1 cells
T1 sequence (Q96RI1 1-486): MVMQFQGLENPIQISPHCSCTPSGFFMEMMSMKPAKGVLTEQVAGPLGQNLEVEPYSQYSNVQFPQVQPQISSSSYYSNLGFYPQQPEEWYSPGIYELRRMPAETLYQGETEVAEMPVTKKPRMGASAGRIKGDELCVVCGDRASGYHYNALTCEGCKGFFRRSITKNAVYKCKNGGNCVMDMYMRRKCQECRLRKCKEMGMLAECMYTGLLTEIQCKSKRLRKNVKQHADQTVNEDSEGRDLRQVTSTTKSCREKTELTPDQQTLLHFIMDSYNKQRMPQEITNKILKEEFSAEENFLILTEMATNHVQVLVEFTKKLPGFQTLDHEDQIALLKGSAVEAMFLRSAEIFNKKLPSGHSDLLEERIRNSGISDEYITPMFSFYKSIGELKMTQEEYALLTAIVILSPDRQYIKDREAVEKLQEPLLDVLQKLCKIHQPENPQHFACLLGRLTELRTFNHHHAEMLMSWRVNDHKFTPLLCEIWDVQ
T1 sequence (P19793 1-462 partner): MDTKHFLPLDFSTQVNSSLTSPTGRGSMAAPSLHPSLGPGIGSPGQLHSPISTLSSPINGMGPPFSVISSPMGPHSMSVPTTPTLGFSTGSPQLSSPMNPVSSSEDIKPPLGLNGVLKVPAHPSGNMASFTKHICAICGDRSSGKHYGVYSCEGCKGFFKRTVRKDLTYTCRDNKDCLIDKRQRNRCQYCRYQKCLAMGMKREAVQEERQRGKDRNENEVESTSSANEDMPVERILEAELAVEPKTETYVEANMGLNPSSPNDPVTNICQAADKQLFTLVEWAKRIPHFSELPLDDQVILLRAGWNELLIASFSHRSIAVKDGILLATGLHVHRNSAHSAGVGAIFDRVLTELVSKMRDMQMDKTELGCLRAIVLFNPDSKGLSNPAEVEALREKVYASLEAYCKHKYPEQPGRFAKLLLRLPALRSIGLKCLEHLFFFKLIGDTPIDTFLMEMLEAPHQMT
Experiment: In Vitro FXR Assay (TK): TK-ECRE-luc reporter in transfected CV-1 cells
Format: cell-based
Settings: 18 hrs, luminescence, maximum efficacy of <25% of the Fexarmine control classified as '+'
Outline: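 CV-1 cells transiently co-transfected with hFXR, hRXR, TK-ECRE-luc and pCMX-YFP plasmids in charcoal-stripped serum medium. Serially diluted compounds added, cells incubated 18 h at 37° C, then lysed and luminescence read.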

SMILES	EC50
COc1ccc([C@H]2CC[C@H](CN(c3cc(-c4coc(C(C)C)n4)ccn3)C(=O)[C@H]3CC[C@H](OC(=O)N4CC(OC)C4)CC3)CC2)nc1C [Compound 7.82, trans-4-((4-(2-Isopropyloxazol-4-yl)pyridine-2-yl)((trans-4-(5-methoxy-6-methylpyridin-2-yl)cyclohexyl)methyl)carbamoyl)cyclohexyl 3-methoxyazetidine-1-carboxylate]	≤ 250 nM
COc1ccc([C@H]2CC[C@H](CN(c3cc(-c4coc(C(C)C)n4)ccn3)C(=O)[C@H]3CC[C@H](OC(=O)N4CC(OC(C)C)C4)CC3)CC2)nc1C [Compound 7.83, trans-4-((4-(2-Isopropyloxazol-4-yl)pyridin-2-yl)((trans-4-(5-methoxy-6-methylpyridin-2-yl)cyclohexyl)methyl)carbamoyl)cyclohexyl 3-isopropoxyazetidine-1-carboxylate]	≤ 250 nM
COc1ccc([C@H]2CC[C@H](CN(c3cc(-c4coc(C(C)C)n4)ccn3)C(=O)[C@H]3CC[C@H](OC(=O)N4CC(N(C)C)C4)CC3)CC2)nc1C [Compound 7.84, trans-4-((4-(2-Isopropyloxazol-4-yl)pyridine-2-yl)((trans-4-(5-methoxy-6-methylpyridin-2-yl)cyclohexyl)methyl)carbamoyl)cyclohexyl 3-(dimethylamino)azetidine-1-carboxylate]	≤ 250 nM
COC(=O)CC1CN(C(=O)O[C@H]2CC[C@H](C(=O)N(C[C@H]3CC[C@H](c4ccc(OC)c(C)n4)CC3)c3cc(-c4coc(C5CC5)n4)ccn3)CC2)C1 [Compound 7.85, trans-4-((4-(2-Cyclopropyloxazol-4-yl)pyridine-2-yl)((trans-4-(5-methoxy-6-methylpyridin-2-yl)cyclohexyl)methyl)carbamoyl)cyclohexyl 3-(2-methoxy-2-oxoethyl)azetidine-1-carboxylate]	≤ 250 nM
COc1ccc([C@H]2CC[C@H](CN(c3cc(-c4coc(C5CC5)n4)ccn3)C(=O)[C@H]3CC[C@H](OC(=O)N4CC(CC(=O)O)C4)CC3)CC2)nc1C [Compound 7.86, 2-(1-(((trans-4-((4-(2-Cyclopropyloxazol-4-yl)pyridine-2-yl) ((trans-4-(5-methoxy-6-methylpyridin-2-yl)cyclohexyl)methyl)carbamoyl)cyclohexyl)oxy)carbonyl)azetidin-3-yl)acetic acid]	250 to 1000 nM
CCOC1CN(C(=O)O[C@H]2CC[C@H](C(=O)N(C[C@H]3CC[C@H](c4ccc(OC)c(C)n4)CC3)c3cc(-c4coc(C5CC5)n4)ccn3)CC2)C1 [Compound 7.87, trans-4-((4-(2-Cyclopropyloxazol-4-yl)pyridine-2-yl)((trans-4-(5-methoxy-6-methylpyridin-2-yl)cyclohexyl)methyl)carbamoyl)cyclohexyl 3-ethoxyazetidine-1-carboxylate]	≤ 250 nM
COc1ccc([C@H]2CC[C@H](CN(c3cc(-c4coc(C5CC5)n4)ccn3)C(=O)[C@H]3CC[C@H](OC(=O)N4CC(C#N)C4)CC3)CC2)nc1C [Compound 7.88, trans-4-((4-(2-Cyclopropyloxazol-4-yl)pyridine-2-yl)((trans-4-(5-methoxy-6-methylpyridin-2-yl)cyclohexyl)methyl)carbamoyl)cyclohexyl 3-cyanoazetidine-1-carboxylate]	≤ 250 nM
COc1ccc([C@H]2CC[C@H](CN(c3cc(-c4coc(C5CC5)n4)ccn3)C(=O)[C@H]3CC[C@H](OC(=O)N4CC(C)C4)CC3)CC2)nc1C [Compound 7.89, trans-4-((4-(2-Cyclopropyloxazol-4-yl)pyridine-2-yl)((trans-4-(5-methoxy-6-methylpyridin-2-yl)cyclohexyl)methyl)carbamoyl)cyclohexyl 3-methylazetidine-1-carboxylate]	≤ 250 nM
CCC1CN(C(=O)O[C@H]2CC[C@H](C(=O)N(C[C@H]3CC[C@H](c4ccc(OC)c(C)n4)CC3)c3cc(-c4coc(C5CC5)n4)ccn3)CC2)C1 [Compound 7.90, trans-4-((4-(2-Cyclopropyloxazol-4-yl)pyridine-2-yl)((trans-4-(5-methoxy-6-methylpyridin-2-yl)cyclohexyl)methyl)carbamoyl)cyclohexyl 3-ethylazetidine-1-carboxylate]	≤ 250 nM
COc1ccc([C@H]2CC[C@H](CN(c3cc(-c4coc(C5CC5)n4)ccn3)C(=O)[C@H]3CC[C@H](OC(=O)N4CC(OC(C)C)C4)CC3)CC2)nc1C [Compound 7.91, trans-4-((4-(2-Cyclopropyloxazol-4-yl)pyridine-2-yl)((trans-4-(5-methoxy-6-methylpyridin-2-yl)cyclohexyl)methyl)carbamoyl)cyclohexyl 3-isopropoxyazetidine-1-carboxylate]	≤ 250 nM
COc1ncc([C@H]2CC[C@H](CN(c3cc(-c4coc(C5CC5)n4)ccn3)C(=O)[C@H]3CC[C@H](OC(=O)N4CC(N(C)C)C4)CC3)CC2)cc1C [Compound 7.92, trans-4-((4-(2-Cyclopropyloxazol-4-yl)pyridine-2-yl)((trans-4-(6-methoxy-5-methylpyridin-3-yl)cyclohexyl)methyl)carbamoyl)cyclohexyl 3-(dimethylamino)azetidine-1-carboxylate]	≤ 250 nM
COc1ncc([C@H]2CC[C@H](CN(c3cc(-c4coc(C5CC5)n4)ccn3)C(=O)[C@H]3CC[C@H](OC(=O)N4CC(OC)C4)CC3)CC2)cc1C [Compound 7.93, trans-4-((4-(2-Cyclopropyloxazol-4-yl)pyridine-2-yl)((trans-4-(6-methoxy-5-methylpyridin-3-yl)cyclohexyl)methyl)carbamoyl)cyclohexyl 3-methoxyazetidine-1-carboxylate]	≤ 250 nM
COc1ncc([C@H]2CC[C@H](CN(c3cc(-c4coc(C5CC5)n4)ccn3)C(=O)[C@H]3CC[C@H](OC(=O)N4CC(O)C4)CC3)CC2)cc1C [Compound 7.94, trans-4-((4-(2-Cyclopropyloxazol-4-yl)pyridine-2-yl)((trans-4-(6-methoxy-5-methylpyridin-3-yl)cyclohexyl)methyl)carbamoyl)cyclohexyl 3-hydroxyazetidine-1-carboxylate]	≤ 250 nM
COCCOC1CN(C(=O)O[C@H]2CC[C@H](C(=O)N(C[C@H]3CC[C@H](c4ccc(OC)c(C)n4)CC3)c3cc(-c4coc(C5CC5)n4)ccn3)CC2)C1 [Compound 7.95, trans-4-((4-(2-Cyclopropyloxazol-4-yl)pyridine-2-yl)((trans-4-(5-methoxy-6-methylpyridin-2-yl)cyclohexyl)methyl)carbamoyl)cyclohexyl 3-(2-methoxyethoxy)azetidine-1-carboxylate]	≤ 250 nM
COc1ccc([C@H]2CC[C@H](CN(c3cc(-c4coc(C5CC5)n4)ccn3)C(=O)[C@H]3CC[C@@H](OC(=O)N4CC(O)C4)CC3)CC2)nc1C [Compound 7.96, 4-(4-(2-Cyclopropyloxazol-4-y)pyridine-2-yl)((4-(5-methoxy-6-methylpyridin-2-yl)cyclohexyl)methyl)carbamoyl) cyclohexyl-cis-3-hydroxyazetidine-1-carboxylate]	250 to 1000 nM
COc1ccc([C@H]2CC[C@H](CN(c3cc(-c4coc(C(C)C)n4)ccn3)C(=O)[C@H]3CC[C@H](OC(=O)N4CC(CO)C4)CC3)CC2)nc1C [Compound 7.97, trans-4-((4-(2-Isopropyloxazol-4-yl)pyridine-2-yl)((trans-4-(5-methoxy-6-methylpyridin-2-yl)cyclohexyl)methyl)carbamoyl)cyclohexyl 3-(hydroxymethyl)azetidine-1-carboxylate]	≤ 250 nM
C#CC1CN(C(=O)O[C@H]2CC[C@H](C(=O)N(C[C@H]3CC[C@H](c4ccc(OC)c(C)n4)CC3)c3cc(-c4coc(C5CC5)n4)ccn3)CC2)C1 [Compound 7.98, trans-4-((4-(2-Cyclopropyloxazol-4-yl)pyridine-2-yl)((trans-4-(5-methoxy-6-methylpyridin-2-yl)cyclohexyl)methyl)carbamoyl)cyclohexyl 3-ethynylazetidine-1-carboxylate]	≤ 250 nM
COc1ccc([C@H]2CC[C@H](CN(c3cc(-c4coc(C5CC5)n4)ccn3)C(=O)[C@H]3CC[C@H](OC(=O)N4CC(C(C)(C)O)C4)CC3)CC2)nc1C [Compound 7.99, trans-4-((4-(2-Cyclopropyloxazol-4-yl)pyridine-2-yl)((trans-4-(5-methoxy-6-methylpyridin-2-yl)cyclohexyl)methyl)carbamoyl)cyclohexyl 3-(2-hydroxypropan-2-yl)azetidine-1-carboxylate]	≤ 250 nM
